Measured values: patent US11325936B2, “Sialidase inhibitors and preparation thereof” (The Regents of the University of California, priority 2017, dated 2022)

Legend:
SpNanB = SpNanB (Streptococcus pneumoniae serotype 4, UniProt Q54727, E68D/K536E/K577E/N393D/S59P); test: Substrate specificity of SpNanB; settings: pNP-tagged α2-3-linked sialosides
SpNanC = test: Substrate specificity assay of SpNanC; settings: for Percentage conversion (%) by SpNanC: sialoside substrate 0.3 mM, SpNanC (2 μg), Tris-HCl pH 7.0, 30 min, 37° C.; for Cleavage by SpNanC, yield: reactions using 3 μg of SpNanC

| Compound | Recognition by SpNanB (substrate specificity) (SpNanB) | Percentage conversion (%) by SpNanC (SpNanC) | Cleavage by SpNanC, yield (SpNanC) |
| --- | --- | --- | --- |
| [N-]=[N+]=NCC(O)C(O)C1OC(OC2C(O)C(CO)OC(Oc3ccc([N+](=O)[O-])cc3)C2O)(C(=O)O)CC(O)C1NC(=O)CO (stereo not drawn) [Neu5Gc9N3α2-3GalβpNP] | + (+ represents >80% conversion) | 89.5 ± 3.5% | – |
| Neu5Ac7N3α2-3GalβpNP | + (+ represents >80% conversion) | 65.9 ± 1.1% | – |
| [N-]=[N+]=NCC(=O)N[C@H]1[C@H]([C@H](O)[C@H](O)CO)O[C@@](O[C@H]2[C@@H](O)[C@@H](CO)O[C@@H](Oc3ccc([N+](=O)[O-])cc3)[C@@H]2O)(C(=O)O)C[C@@H]1O [Neu5AcN3α2-3GalβpNP] | + (+ represents >80% conversion) | 87.9 ± 1.6% | – |
| CC(=O)N[C@H]1[C@H]([C@H](O)[C@H](O)CF)O[C@@](O[C@H]2[C@@H](O)[C@@H](CO)O[C@@H](Oc3ccc([N+](=O)[O-])cc3)[C@@H]2O)(C(=O)O)C[C@@H]1O [Neu5Ac9Fα2-3GalβpNP] | + (+ represents >80% conversion) | 75.6 ± 3.9% | – |
| CO[C@@H]([C@@H]1O[C@](O[C@H]2[C@@H](O)[C@@H](CO)O[C@@H](Oc3ccc([N+](=O)[O-])cc3)[C@@H]2O)(C(=O)O)C[C@H](O)[C@H]1O)[C@H](O)CO [Kdn7OMeα2-3GalβpNP] | − (− represents <20% conversion) | 23.4 ± 3.3% | 23% |
| COCC(=O)NC1C(O)CC(OC2C(O)C(CO)OC(Oc3ccc([N+](=O)[O-])cc3)C2O)(C(=O)O)OC1C(O)C(O)CO (stereo not drawn) [Neu5AcOMeα2-3GalβpNP] | + (+ represents >80% conversion) | 81.8 ± 1.7% | – |
| CC(=O)N[C@H]1[C@H](C[C@H](O)CO)O[C@@](O[C@H]2[C@@H](O)[C@@H](CO)O[C@@H](Oc3ccc([N+](=O)[O-])cc3)[C@@H]2O)(C(=O)O)C[C@@H]1O [Neu5Ac7deoxyα2-3GalβpNP] | + (+ represents >80% conversion) | 91.2 ± 1.8% | – |
| COCC(O)C(O)C1OC(OC2C(O)C(CO)OC(Oc3ccc([N+](=O)[O-])cc3)C2O)(C(=O)O)CC(O)C1O (stereo not drawn) [Kdn9OMeα2-3GalβpNP] | − (− represents <20% conversion) | 4.02 ± 1.36% | – |
| O=C(O)C1(OC2C(O)C(CO)OC(Oc3ccc([N+](=O)[O-])cc3)C2O)CC(O)C(O)C(C(O)C(O)CF)O1 (stereo not drawn) [Kdn9Fα2-3GalβpNP] | − (− represents <20% conversion) | 3.70 ± 1.14% | – |
| O=C(O)[C@@]1(O[C@H]2[C@@H](O)[C@@H](CO)O[C@@H](Oc3ccc([N+](=O)[O-])cc3)[C@@H]2O)C[C@H](O)[C@@H](F)[C@H]([C@H](O)[C@H](O)CO)O1 [Kdn5Fα2-3GalβpNP] | − (− represents <20% conversion) | 0.48 ± 0.00% | – |
| [N-]=[N+]=NC1C(O)CC(OC2C(O)C(CO)OC(Oc3ccc([N+](=O)[O-])cc3)C2O)(C(=O)O)OC1C(O)C(O)CO (stereo not drawn) [Kdn5N3α2-3GalβpNP] | − (− represents <20% conversion) | 0.32 ± 0.45% | – |
| O=C(CF)NC1C(O)CC(OC2C(O)C(CO)OC(Oc3ccc([N+](=O)[O-])cc3)C2O)(C(=O)O)OC1C(O)C(O)CO (stereo not drawn) [Neu5AcFα2-3GalβpNP] | + (+ represents >80% conversion) | 74.8 ± 3.2% | – |
| O=C(O)[C@]1(O[C@H]2[C@@H](O)[C@@H](CO)O[C@@H](Oc3ccc([N+](=O)[O-])cc3)[C@@H]2O)C[C@H](O)[C@@H](O)[C@H]([C@H](O)[C@H](O)CO)O1 [Kdnα2-3GalβpNP] | − (− represents <20% conversion) | 4.50 ± 0.45% | – |
| COCC(O)C(O)C1OC(OC2C(O)C(CO)OC(Oc3ccc([N+](=O)[O-])cc3)C2O)(C(=O)O)CC(O)C1NC(=O)CO (stereo not drawn) [Neu5Gc9OMeα2-3GalβpNP] | + (+ represents >80% conversion) | 75.0 ± 1.9% | – |
| O=C(O)C1(OC2C(O)C(CO)OC(Oc3ccc([N+](=O)[O-])cc3)C2O)CC(O)C(O)C(CC(O)CO)O1 (stereo not drawn) [Kdn7deoxyα2-3GalβpNP] | − (− represents <20% conversion) | 10.1 ± 0.0% | 10% |
| COCC(O)C(O)C1OC(OC2C(O)C(CO)OC(Oc3ccc([N+](=O)[O-])cc3)C2O)(C(=O)O)CC(O)C1NC(C)=O (stereo not drawn) [Neu5Ac9OMeα2-3GalβpNP] | + (+ represents >80% conversion) | 88.5 ± 5.1% | – |
| O=C(O)[C@]1(O[C@H]2[C@@H](O)[C@@H](CO)O[C@@H](Oc3ccc([N+](=O)[O-])cc3)[C@@H]2O)C[C@H](O)[C@@H](O)[C@H]([C@H](F)[C@H](O)CO)O1 [Kdn7Fα2-3GalβpNP] | − (− represents <20% conversion) | 0.56 ± 0.11% | – |
| COC(C(O)CO)C1OC(OC2C(O)C(CO)OC(Oc3ccc([N+](=O)[O-])cc3)C2O)(C(=O)O)CC(O)C1NC(C)=O (stereo not drawn) [Neu5Ac7OMeα2-3GalβpNP] | + (+ represents >80% conversion) | 96.5 ± 1.7% | – |
| CO[C@H]1[C@H]([C@H](O)[C@H](O)CO)O[C@](O[C@H]2[C@@H](O)[C@@H](CO)O[C@@H](Oc3ccc([N+](=O)[O-])cc3)[C@@H]2O)(C(=O)O)C[C@@H]1O [Kdn5OMe α2-3GalβpNP, Kdn5OMeα2-3GalβpNP] | − (− represents <20% conversion) | 1.53 ± 1.02% | – |
| [N-]=[N+]=NC(C(O)CO)C1OC(OC2C(O)C(CO)OC(Oc3ccc([N+](=O)[O-])cc3)C2O)(C(=O)O)CC(O)C1O (stereo not drawn) [Kdn7N3α2-3GalβpNP] | − (− represents <20% conversion) | 4.50 ± 0.45% | – |
| O=C(CO)NC1C(O)CC(OC2C(O)C(CO)OC(Oc3ccc([N+](=O)[O-])cc3)C2O)(C(=O)O)OC1C(O)C(O)CF (stereo not drawn) [Neu5Gc9Fα2-3GalβpNP] | + (+ represents >80% conversion) | 72.3 ± 2.6% | – |
| O=C(O)C1(OC2C(O)C(CO)OC(Oc3ccc([N+](=O)[O-])cc3)C2O)CC(O)CC(C(O)C(O)CO)O1 (stereo not drawn) [Kdn5deoxyα2-3GalβpNP] | − (− represents <20% conversion) | 5.31 ± 0.23% | – |
| C[C@@H](O)[C@@H](O)[C@@H]1O[C@@](O[C@H]2[C@@H](O)[C@@H](CO)O[C@@H](Oc3ccc([N+](=O)[O-])cc3)[C@@H]2O)(C(=O)O)C[C@H](O)[C@H]1NC(=O)CO [Neu5Gc9deoxyα2-3GalβpNP] | + (+ represents >80% conversion) | 85.5 ± 1.4% | – |
| CC(=O)NC1C(O)CC(OC2C(O)C(CO)OC(Oc3ccc([N+](=O)[O-])cc3)C2O)(C(=O)O)OC1C(O)C(C)O (stereo not drawn) [Neu5Ac9deoxyα2-3GalβpNP] | + (+ represents >80% conversion) | 93.5 ± 3.1% | – |
| CC(=O)NC1C(O)CC(OC2C(O)C(CO)OC(Oc3ccc([N+](=O)[O-])cc3)C2O)(C(=O)O)OC1C(F)C(O)CO (stereo not drawn) [Neu5Ac7Fα2-3GalβpNP] | + (+ represents >80% conversion) | 91.0 ± 4.3% | – |
| O=C(CO)NC1C(O)CC(OC2C(O)C(CO)OC(Oc3ccc([N+](=O)[O-])cc3)C2O)(C(=O)O)OC1C(O)C(O)CO (stereo not drawn) [Neu5Gcα2-3GalβpNP] | + (+ represents >80% conversion) | 80.6 ± 6.7% | – |
